Experiments:
[1] = molecular target: T1, Prostaglandin E2 receptor EP4 subtype (Homo sapiens, UniProt P35408); test: Agonist activity against recombinant prostanoid EP4 receptor stably transfected in CHO cells; format: functional, cell-based
[2] = molecular target: T1, Prostaglandin E2 receptor EP4 subtype; test: Binding affinity was determined against prostanoid EP4 receptor
[3] = molecular target: T2, Prostaglandin E2 receptor EP3 subtype (Homo sapiens, UniProt P43115); test: Binding affinity was determined against prostanoid EP3 receptor
T2 sequence (P43115 whole entry): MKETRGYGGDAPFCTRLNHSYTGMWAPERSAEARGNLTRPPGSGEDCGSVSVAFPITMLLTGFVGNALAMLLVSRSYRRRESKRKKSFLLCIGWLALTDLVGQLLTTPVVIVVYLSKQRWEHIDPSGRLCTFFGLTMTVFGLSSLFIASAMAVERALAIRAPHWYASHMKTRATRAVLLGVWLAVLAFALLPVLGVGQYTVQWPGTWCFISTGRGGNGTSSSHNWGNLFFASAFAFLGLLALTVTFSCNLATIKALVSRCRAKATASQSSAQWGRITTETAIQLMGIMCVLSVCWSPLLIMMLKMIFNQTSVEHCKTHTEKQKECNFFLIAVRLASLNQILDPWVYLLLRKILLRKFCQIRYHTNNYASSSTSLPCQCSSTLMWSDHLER

[4] = molecular target: Prostaglandin E2 receptor EP2 subtype (Homo sapiens, UniProt P43116); test: Binding affinity was determined against prostanoid EP2 receptor
Sequence of Prostaglandin E2 receptor EP2 subtype (P43116 whole entry): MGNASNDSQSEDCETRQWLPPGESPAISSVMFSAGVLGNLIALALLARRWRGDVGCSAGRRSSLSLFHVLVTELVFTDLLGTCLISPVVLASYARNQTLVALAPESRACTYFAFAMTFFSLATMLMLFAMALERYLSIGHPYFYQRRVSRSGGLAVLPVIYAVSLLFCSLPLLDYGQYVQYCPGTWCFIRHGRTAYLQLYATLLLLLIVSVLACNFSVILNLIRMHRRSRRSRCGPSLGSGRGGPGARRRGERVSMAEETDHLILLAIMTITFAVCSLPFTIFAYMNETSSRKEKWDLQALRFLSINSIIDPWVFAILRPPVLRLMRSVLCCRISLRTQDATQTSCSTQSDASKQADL

[5] = molecular target: T3, Prostaglandin E2 receptor EP1 subtype (Homo sapiens, UniProt P34995); test: Binding affinity was determined against prostanoid EP1 receptor
T3 sequence (P34995 whole entry): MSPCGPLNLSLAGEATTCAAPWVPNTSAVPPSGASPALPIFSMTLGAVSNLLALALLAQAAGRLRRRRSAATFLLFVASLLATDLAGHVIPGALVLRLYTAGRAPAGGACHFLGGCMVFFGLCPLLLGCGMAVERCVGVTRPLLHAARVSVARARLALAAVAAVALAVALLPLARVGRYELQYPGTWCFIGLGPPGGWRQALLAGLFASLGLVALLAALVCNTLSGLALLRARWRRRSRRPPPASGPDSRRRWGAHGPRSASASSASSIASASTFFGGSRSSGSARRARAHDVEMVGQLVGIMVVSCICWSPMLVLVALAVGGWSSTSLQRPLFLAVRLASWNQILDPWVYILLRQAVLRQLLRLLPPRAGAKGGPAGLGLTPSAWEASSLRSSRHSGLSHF

T1 sequence (P35408 whole entry): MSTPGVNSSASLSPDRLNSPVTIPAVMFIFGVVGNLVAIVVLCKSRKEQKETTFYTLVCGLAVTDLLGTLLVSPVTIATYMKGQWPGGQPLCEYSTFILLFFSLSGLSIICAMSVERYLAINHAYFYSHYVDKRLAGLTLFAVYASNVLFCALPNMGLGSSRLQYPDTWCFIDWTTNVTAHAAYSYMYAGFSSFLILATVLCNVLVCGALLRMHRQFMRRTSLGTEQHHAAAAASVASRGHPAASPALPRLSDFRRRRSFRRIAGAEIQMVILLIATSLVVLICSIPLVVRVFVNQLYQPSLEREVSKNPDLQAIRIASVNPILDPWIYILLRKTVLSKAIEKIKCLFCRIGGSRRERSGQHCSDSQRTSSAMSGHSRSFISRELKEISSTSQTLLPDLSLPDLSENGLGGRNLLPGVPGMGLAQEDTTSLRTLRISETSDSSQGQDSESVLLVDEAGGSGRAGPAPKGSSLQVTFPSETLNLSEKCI

| Compound | EC50 [1] [µM] | Ki [2] [µM] | Ki [3] [µM] | Ki [4] [µM] | Ki [5] [µM] |
| --- | --- | --- | --- | --- | --- |
| O=C(O)CCCCCCN1C(=O)CC[C@@H]1CC[C@@H](O)c1cccc(C(F)(F)F)c1 | 0.13 | 0.0074 | 12 |  |  |
| O=C(O)CCCCCCN1C(=O)CC[C@@H]1/C=C/C(O)c1ccccc1 (some centres not stated) | > 10 | 2.3 |  | 41 |  |
| O=C(O)CCCCCCN1C(=O)CC[C@@H]1/C=C/C(O)c1cccc(-c2ccccc2)c1 (some centres not stated) | 0.36 | 0.36 | > 100 | 32 |  |
| O=C(O)CCCCCCN1C(=O)CC[C@@H]1/C=C/C(O)c1cccc(C(F)(F)F)c1 (some centres not stated) | 0.5 | 0.14 | 131 | 68 |  |
| O=C(O)CCCCCCN1C(=O)CC[C@@H]1/C=C/C(O)c1cccc(-c2ccc(Cl)cc2)c1 (some centres not stated) | 0.05 | 0.39 | > 100 | 4.2 |  |
| Cc1cc(Cl)ccc1-c1cccc(C(O)/C=C/[C@H]2CCC(=O)N2CCCCCCC(=O)O)c1 (some centres not stated) | 0.0008 | 0.0031 | 38 | > 100 |  |
| CCCCC[C@@H](O)/C=C/[C@H]1CCC(=O)N1CCCCCCC(=O)O | 6.1 |  |  |  |  |
| O=C(O)CCCCCCN1C(=O)CC[C@@H]1/C=C/C(O)c1cccc(-c2ccccc2Cl)c1 (some centres not stated) | 0.04 | 0.0062 | > 100 | 42 |  |
| O=C(O)CCCCCCN1C(=O)CC[C@@H]1CC[C@@H](O)Cc1cccc(C(F)(F)F)c1 | 0.46 | 0.016 | 38 | 22 |  |
| O=C(O)CCCCCCN1C(=O)CC[C@@H]1CCC(=O)c1cccc(C(F)(F)F)c1 | > 10 |  |  |  |  |
| Cc1cc(O)ccc1-c1cccc(C(O)/C=C/[C@H]2CCC(=O)N2CCCCCCC(=O)O)c1 (some centres not stated) | 0.013 | 0.0049 | > 100 | > 100 |  |
| CCCCC[C@H](O)/C=C/[C@H]1CCC(=O)N1CCCCCCC(=O)O | 0.056 | 0.0045 | 3 | 4.5 | > 100 |
| Cc1cc(O)ccc1-c1cccc([C@H](O)CC[C@H]2CCC(=O)N2CCCCCCC(=O)O)c1 | 0.015 | 0.0082 | > 100 | 26 |  |
| O=C(O)CCCCCCN1C(=O)CC[C@@H]1/C=C/C(O)C1(c2ccccc2)CC1 (some centres not stated) | 0.18 |  | 20 | 164 | 28 |
| O=C(O)CCCCCCN1C(=O)CC[C@@H]1/C=C/C(O)Cc1ccccc1 (some centres not stated) |  |  | 100 | 31 |  |
| CCCCC[C@@H](O)/C=C/[C@@H]1CCC(=O)N1CCCCCCC(=O)O | 200 |  |  |  |  |
| O=C(O)CCCCCCN1C(=O)CC[C@@H]1/C=C/C(O)c1cccc(-c2cccc(Cl)c2)c1 (some centres not stated) | 0.17 | 0.42 | > 100 | 85 |  |
| O=C(O)CCCCCCN1C(=O)CC[C@@H]1/C=C/C(O)c1ccc(C(F)(F)F)o1 (some centres not stated) | 0.04 | 0.01 | 4.9 | 58 |  |
| CCCCC[C@H](O)/C=C/[C@@H]1CCC(=O)N1CCCCCCC(=O)O | > 100 |  |  |  |  |
| O=C(O)CCCCCCN1C(=O)CC[C@@H]1/C=C/C(O)c1cccc(Oc2ccccc2)c1 (some centres not stated) | 0.085 | 0.032 | > 100 |  | 50 |
| O=C(O)CCCCCCN1C(=O)CC[C@@H]1/C=C/[C@@H](O)Cc1cccc(C(F)(F)F)c1 | 0.012 | 0.0016 | 13 | 29 | > 100 |
| O=C(O)CCCCCCN1C(=O)CC[C@@H]1/C=C/C(O)c1ccccc1-c1ccccc1 (some centres not stated) | 42 |  |  |  |  |
| O=C(O)CCCCCCN1C(=O)CC[C@@H]1/C=C/C(O)Cc1cccc(C(F)(F)F)c1 (some centres not stated) | 0.017 |  | 12 |  | > 100 |
| O=C(O)CCCCCCN1C(=O)CC[C@@H]1/C=C/[C@@H](O)CC1CCCCC1 | 0.12 | 0.0075 | 16 | 71 |  |
| O=C(O)CCCCCCN1C(=O)CC[C@@H]1/C=C/[C@@H](O)CC1CCC1 | 0.2 | 0.0042 | 56 | > 100 |  |

Source: ChEMBL document CHEMBL1137967, “Lactams as EP4 prostanoid receptor subtype selective agonists. Part 1: 2-Pyrrolidinones-stereochemical and lower side-chain optimization” (Bioorg Med Chem Lett, 2004)
